In patent US7982042B2, “Thiozanthene derivatives as delta-opioid modulators” (priority 2003, dated 2011):
Like-named read-outs stand apart in the source and are kept apart here.

Key:
[1] = biological target: T1, human delta opioid receptor (Homo sapiens, UniProt P41143); test: [35S]GTPγS binding assay in CHO-hδ cell membranes; assay type: biochemical; settings: hDOR GTPγS EC50, human delta opioid receptor GTPγS functional assay
T1 construct: purchased Receptor Biology, Inc. (Baltimore, Md.); host or cells: CHO cells expressing the human delta receptor (membranes)
Method: CHO-hδ cell membranes are purchased from Receptor Biology, Inc. (Baltimore, Md.). 10 mg/ml of membrane protein is suspended in 10 mM TRIS-HC pH 7.2, 2 mM EDTA, 10% sucrose.
(§1) Membranes are maintained at 4-8° C. 1 ml of membranes is added into 15 ml cold binding assay buffer. The assay buffer contained 50 mM HEPES, pH 7.6, 5 mM MgCl2, 100 mM NaCl, 1 mM DTT and 1 mM EDTA. The membrane suspension is homogenized with a Polytron 2 times and centrifuged at 3000 rpm for 10 min. The supernatant is then centrifuged at 18,000 rpm for 20 min. The pellet is saved in a tube and 10 ml assay buffer is added into the tube. The pellet and buffer are mixed with a Polytron.
(§2) The pellet membranes (20 μg/ml) are preincubated with SPA (10 mg/ml) at 25° C. for 45 min in the assay buffer. The SPA (5 mg/ml) coupled with membranes (10 μg/ml) is then incubated with 0.5 nM [^35S]GTPgS in the same HEPES buffer containing 50 μM GDP in total volume of 200 μl. Increasing concentrations of receptor agonists are used to stimulate [^35S]GTPgS binding. The basal binding is tested in the absence of agonists and non-specific binding is tested in the presence of 10 μM unlabeled GTP S. The data are analyzed on a Top counter.

[2] = biological target: T2, delta opioid receptor (Mus musculus, UniProt P32300); test: [35S]GTPγS binding assay in NG108-15 cell membrane; assay type: biochemical; settings: DOR GTPγS EC50, delta opioid receptor GTPγS functional assay
T2 construct: host or cells: NG108-15 cells (membranes, purchased)
Method: NG108-15 cell membranes were purchased from Applied Cell Sciences (Rockville, Md.). An 8 mg/mL portion of membrane protein was suspended in 10 mM TRIS-HC pH 7.2, 2 mM EDTA, 10% sucrose.
Membranes were maintained at 4-8° C. A 1 mL portion of membranes was added into 10 mL cold binding assay buffer. The assay buffer contained 50 mM Tris, pH 7.6, 5 mM MgCl2, 100 mM NaCl, 1 mM DTT and 1 mM EGTA. The membrane suspension was homogenized with a Polytron for 2 times and centrifuged at 3000 rpm for 10 min. The supernatent was then centrifuged at 18,000 rpm for 20 min. The pellet was saved in a tube and 10 ml assay buffer was added into the tube. The pellet and buffer were mixed with a Polytron.
The pellet membranes (75 μg/ml) were preincubated with SPA (10 mg/ml) at 25° C. for 45 min in the assay buffer. […] GTPγS in the same Tris buffer containing 100 μM GDP in total volume of 200 μl. Increasing concentrations of receptor agonists were used to stimulate [^35S] GTPγS binding. The basal binding was tested in the absent agonists and no specific binding was tested in the present 10 μM unlabeled GTPγS. The data were analyzed on a Top counter.
% of Basal=(stimulate−non specific)*100/(basal−non specific). EC50 values are calculated using a Prism program.

[3] = biological target: T3, Rat brain mu opioid receptor (Rattus norvegicus, UniProt P33535); test: Rat brain mu opioid receptor binding assay ([3H]DAMGO)
T3 construct: from tissue; host or cells: forebrain of male Sprague Dawley rats

[4] = biological target: T4, Rat brain delta opioid receptor (Rattus norvegicus, UniProt P33533); test: Rat brain delta opioid receptor binding; settings: rDOR Ki
T4 construct: from tissue; host or cells: rat brain

[5] = biological target: T5, human mu opioid receptor (Homo sapiens, UniProt P35372); test: [35S]GTPγS binding assay in CHO-hμ cell membranes; assay type: biochemical; settings: inhibition relative to 1 uM DAMGO, read-out: hMOR GTPγS % I @10 μM
T5 construct: purchased Receptor Biology, Inc. (Baltimore, Md.); host or cells: CHO cells expressing the human mu receptor (membranes)
Method: CHO-hμ cell membranes are purchased from Receptor Biology, Inc. (Baltimore, Md.). About 10 mg/ml of membrane protein is suspended in 10 mM TRIS-HC pH 7.2, 2 mM EDTA, 10% sucrose.
as §1, with “assay buffer contains 50 mM” for “assay buffer contained 50 mM”, “is added to the tube.” for “is added into the tube.”
as §2, with “25 C′” for “25° C.”, “present” for “presence of”, “GTPγS.” for “GTP S.”
% of Basal=(stimulate−non-specific)*100/(basal−non specific). % inhibition value values are calculated using a formula, % Inhibition=(% Basal of 1 uM DAMGO−% Basal of compound)*100/(% Basal of 1 uM DAMGO−100)

[6] = tested on: mice; test: Mouse Abdominal Irritant Test (MAIT); assay type: in vivo; settings: @ 30 (dose printed in the cell)
Method: The procedure used was that described by Collier et al. (1968), with minor modifications. Thirty minutes after the administration of test drug, the animals received an i.p. injection of 5.5 mg/kg of acetylcholine bromide. The mice were then placed into large glass animal jars and were continuously observed for the first occurrence of a characteristic behavioral response (twisting and elongation of the body which extends throughout the hindlimbs) within the specified observation period of 10 minutes. […] Data % of Basal=(stimulate−non-specific)*100/(basal−non-specific). EC50 value values are calculated using a Prism program.

T2 sequence (P32300 whole entry): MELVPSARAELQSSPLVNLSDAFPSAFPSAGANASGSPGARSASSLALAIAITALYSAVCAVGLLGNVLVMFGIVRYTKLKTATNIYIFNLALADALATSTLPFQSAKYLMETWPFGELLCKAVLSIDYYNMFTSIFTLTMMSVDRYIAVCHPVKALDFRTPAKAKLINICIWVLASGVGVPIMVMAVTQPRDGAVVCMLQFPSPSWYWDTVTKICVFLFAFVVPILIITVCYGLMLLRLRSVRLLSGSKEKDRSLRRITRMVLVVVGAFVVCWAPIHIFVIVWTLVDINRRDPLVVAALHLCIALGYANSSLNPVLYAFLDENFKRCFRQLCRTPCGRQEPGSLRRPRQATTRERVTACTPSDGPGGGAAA
T4 sequence (P33533 whole entry): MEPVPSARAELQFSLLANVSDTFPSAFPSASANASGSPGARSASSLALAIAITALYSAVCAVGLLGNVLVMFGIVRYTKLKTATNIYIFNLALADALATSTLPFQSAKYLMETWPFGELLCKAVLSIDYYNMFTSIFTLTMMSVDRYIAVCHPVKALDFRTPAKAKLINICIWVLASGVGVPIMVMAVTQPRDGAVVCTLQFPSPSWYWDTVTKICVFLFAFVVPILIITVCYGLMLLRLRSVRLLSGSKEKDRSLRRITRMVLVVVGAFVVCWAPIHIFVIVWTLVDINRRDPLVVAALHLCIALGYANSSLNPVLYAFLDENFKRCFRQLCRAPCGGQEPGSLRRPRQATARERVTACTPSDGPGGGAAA
T3 sequence (P33535 whole entry): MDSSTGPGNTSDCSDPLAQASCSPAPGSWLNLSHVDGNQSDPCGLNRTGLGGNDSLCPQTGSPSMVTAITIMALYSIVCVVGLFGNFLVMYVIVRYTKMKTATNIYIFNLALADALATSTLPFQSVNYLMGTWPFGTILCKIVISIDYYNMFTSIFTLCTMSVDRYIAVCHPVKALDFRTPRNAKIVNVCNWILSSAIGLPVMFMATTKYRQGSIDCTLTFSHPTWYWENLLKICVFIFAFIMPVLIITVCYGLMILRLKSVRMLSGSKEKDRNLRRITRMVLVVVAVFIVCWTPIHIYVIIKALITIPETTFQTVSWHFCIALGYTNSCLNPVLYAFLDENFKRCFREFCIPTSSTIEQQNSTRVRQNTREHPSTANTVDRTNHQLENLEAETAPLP
T1 sequence (P41143 whole entry): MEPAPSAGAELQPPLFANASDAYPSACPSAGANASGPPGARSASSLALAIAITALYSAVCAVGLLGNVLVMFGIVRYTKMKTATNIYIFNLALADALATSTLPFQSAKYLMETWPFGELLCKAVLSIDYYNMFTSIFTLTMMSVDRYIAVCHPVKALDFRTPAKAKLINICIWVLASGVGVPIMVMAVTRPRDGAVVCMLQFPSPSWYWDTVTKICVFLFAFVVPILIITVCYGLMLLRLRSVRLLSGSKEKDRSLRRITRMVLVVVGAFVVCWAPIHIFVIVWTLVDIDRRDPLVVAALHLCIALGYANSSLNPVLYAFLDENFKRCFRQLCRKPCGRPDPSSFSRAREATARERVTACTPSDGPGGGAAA
T5 sequence (P35372 whole entry): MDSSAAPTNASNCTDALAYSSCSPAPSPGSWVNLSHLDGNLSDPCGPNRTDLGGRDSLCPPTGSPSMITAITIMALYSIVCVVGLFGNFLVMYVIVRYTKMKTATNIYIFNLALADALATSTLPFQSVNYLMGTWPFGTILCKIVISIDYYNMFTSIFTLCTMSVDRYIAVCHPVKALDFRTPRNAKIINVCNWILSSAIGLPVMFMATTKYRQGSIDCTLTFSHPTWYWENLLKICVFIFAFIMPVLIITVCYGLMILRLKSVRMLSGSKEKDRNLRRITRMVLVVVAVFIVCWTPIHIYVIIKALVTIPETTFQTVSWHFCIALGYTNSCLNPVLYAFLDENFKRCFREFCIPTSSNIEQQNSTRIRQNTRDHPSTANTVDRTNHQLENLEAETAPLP

| SMILES | EC50 [1] | EC50 [2] | Ki ([3]; rMOR Ki) | Ki [4] | Ki ([3]; read-out: rMOR Ki) | inhibition at 10 µM [5] | MAIT % I [6] |
| --- | --- | --- | --- | --- | --- | --- | --- |
| CCN(CC)C(=O)c1ccc2c(c1)Oc1ccccc1C2=C1CC2CCC(C1)N2 (single isomer, unassigned) [Compound 52, 9-(8-Aza-bicyclo[3.2.1]oct-3-ylidene)-9H-xanthene-3-carboxylic acid diethylamide] | 4.44 nM | 66 nM | > 100 nM | 0.61 nM | – | – | – |
| CCN(CC)C(=O)c1ccc2c(c1)Oc1ccccc1C2=C1CC2CCC(C1)N2 (single isomer, unassigned) [Compound 53, 9-(8-Aza-bicyclo[3.2.1]oct-3-ylidene)-9H-xanthene-3-carboxylic acid diethylamide] | 257 nM | 2060 nM | – | 50.1 nM | > 100 nM | – | – |
| CCN(CC)C(=O)c1ccc2c(c1)Sc1ccccc1C2=C1CC2CCC(C1)N2 (single isomer, unassigned) [Compound 62, 9-(8-Aza-bicyclo[3.2.1]oct-3-ylidene)-9H-thioxanthene-3-carboxylic acid diethylamide] | – | 8.35 nM | 739 nM | 2.96 nM | – | – | – |
| CCN(CC)C(=O)c1ccc2c(c1)Oc1ccccc1C2=C1CC2CCC(C1)N2Cc1ccoc1 [Compound 25, 9-(8-Furan-3-ylmethyl-8-aza-bicyclo[3.2.1]oct-3-ylidene)-9H-xanthene-3-carboxylic acid diethylamide] | 1.39 nM | – | 879 nM | 0.01 nM | – | 74% | 30(@ 30) % |
| CCN(CC)C(=O)c1ccc2c(c1)Oc1c(OC)cccc1C2=C1CC2CCC(C1)N2 [Compound 68, 9-(8-Aza-bicyclo[3.2.1]oct-3-ylidene)-5-methoxy-9H-xanthene-3-carboxylic acid diethylamide] | – | 22 nM | 1290 nM | 0.74 nM | – | – | – |
| CCN(CC)C(=O)c1ccc2c(c1)Oc1ccc(F)cc1C2=C1CC2CCC(C1)N2 [Compound 69] | – | 126 nM | 5830 nM | 4.99 nM | – | – | – |
| CCN(CC)C(=O)c1ccc2c(c1)Oc1cc(O)ccc1C2=C1CC2CCC(C1)N2 [Compound 76, 9-(8-Aza-bicyclo[3.2.1]oct-3-ylidene)-6-hydroxy-9H-xanthene-3-carboxylic acid diethylamide] | – | 5.91 nM | 285 nM | 1.7 nM | – | – | – |
| CC(C)N(C)C(=O)c1ccc2c(c1)Oc1ccccc1C2=C1CC2CCC(C1)N2 [Compound 92, 9-(8-Aza-bicyclo[3.2.1]oct-3-ylidene)-9H-xanthene-3-carboxylic acid isopropyl-methyl-amide] | – | 55.3 nM | 2.09 nM | 2.09 nM | – | – | – |
| CCN(CC)C(=O)c1ccc2c(c1)Oc1c(Br)cccc1C2=C1CC2CCC(C1)N2 [Compound 94, 9-(8-Aza-bicyclo[3.2.1]oct-3-ylidene)-5-bromo-9H-xanthene-3-carboxylic acid diethylamide] | – | 14.1 nM | 674 nM | 2.28 nM | – | – | – |
| CCN(CC)C(=O)c1ccc2c(c1)Oc1c(cccc1-c1ccncc1)C2=C1CC2CCC(C1)N2 [Compound 96, 9-(8-Aza-bicyclo[3.2.1]oct-3-ylidene)-5-pyridin-4-yl-9H-xanthene-3-carboxylic acid diethylamide] | – | 35.3 nM | 4220 nM | 1.69 nM | – | – | – |
| CCN(CC)C(=O)c1ccc2c(c1)Oc1c(cccc1-c1ccoc1)C2=C1CC2CCC(C1)N2 [Compound 97, 9-(8-Aza-bicyclo[3.2.1]oct-3-ylidene)-5-furan-3-yl-9H-xanthene-3-carboxylic acid diethylamide] | – | 13.3 nM | 1810 nM | 1.78 nM | – | – | – |
| CCN(CC)C(=O)c1ccc2c(c1)Oc1c(cccc1-c1ccsc1)C2=C1CC2CCC(C1)N2 [Compound 99, 9-(8-Aza-bicyclo[3.2.1]oct-3-ylidene)-5-thiophen-3-yl-9H-xanthene-3-carboxylic acid diethylamide] | – | 12.5 nM | 3490 nM | 19.3 nM | – | – | – |
| CCN(CC)C(=O)c1ccc2c(c1)Oc1c(O)cccc1C2=C1CC2CCC(C1)N2 [Compound 100, 9-(8-Aza-bicyclo[3.2.1]oct-3-ylidene)-5-hydroxy-9H-xanthene-3-carboxylic acid diethylamide] | – | 0.452 nM | 5.85 nM | 0.274 nM | – | – | – |
| CCN(CC)C(=O)c1ccc2c(c1)Oc1c(cccc1-c1cccnc1)C2=C1CC2CCC(C1)N2 [Compound 101, 9-(8-Aza-bicyclo[3.2.1]oct-3-ylidene)-5-pyridin-3-yl-9H-xanthene-3-carboxylic acid diethylamide] | – | 19.3 nM | 532 nM | 9.14 nM | – | – | – |
